The text below walks through data of article PMC9161449, “FUT8-Directed Core Fucosylation of N-glycans Is Regulated by the Glycan Structure and Protein Environment” (ACS Catalysis, 2021).

Assay [1] addresses T1, human FUT8 (Homo sapiens, UniProt Q9BYC5).
T1 construct: made in house
T1 sequence (Q9BYC5 1-575): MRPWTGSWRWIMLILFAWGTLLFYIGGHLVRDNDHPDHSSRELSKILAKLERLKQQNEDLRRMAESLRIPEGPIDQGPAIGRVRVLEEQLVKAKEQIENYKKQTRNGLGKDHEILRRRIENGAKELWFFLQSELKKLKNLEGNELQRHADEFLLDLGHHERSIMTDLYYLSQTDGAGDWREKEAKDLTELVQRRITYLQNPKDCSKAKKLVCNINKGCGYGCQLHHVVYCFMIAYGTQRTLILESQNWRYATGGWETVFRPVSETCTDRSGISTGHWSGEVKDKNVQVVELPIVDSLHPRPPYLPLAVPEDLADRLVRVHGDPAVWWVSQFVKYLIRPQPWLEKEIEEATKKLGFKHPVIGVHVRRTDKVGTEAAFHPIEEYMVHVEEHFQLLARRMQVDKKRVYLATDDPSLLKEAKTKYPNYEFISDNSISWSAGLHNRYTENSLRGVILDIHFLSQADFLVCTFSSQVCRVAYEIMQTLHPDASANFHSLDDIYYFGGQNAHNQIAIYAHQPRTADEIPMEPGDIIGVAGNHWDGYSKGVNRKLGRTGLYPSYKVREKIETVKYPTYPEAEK
Briefly: Isothermal titration calorimetry (ITC) of ligands binding to FUT8. How it is done: (§1) The human FUT8 was purified as previously described.[12]
ITC was performed to characterize the interaction of FUT8 with GDP, G0, the G0-peptide, the M3N2-peptide, M3N2, and M5N2-Asn. All experiments were carried out in an Auto-iTC200 (Microcal, GE Healthcare) at 25 °C. The concentration of FUT8 was 70 μM and the ligand concentration ranged from 400 μM to 1 mM. The experiments used 25 mM Tris (pH 7.5) and 150 mM NaCl for the characterization of the binding of FUT8 against GDP and G0. To characterize the binding of FUT8 against all N-glycans in the presence of an excess of GDP, the conditions were 25 mM Tris (pH 7.5), 150 mM NaCl, and 1 mM GDP. The experiments were performed in duplicate. Data integration, correction, and analysis were carried out in Origin 7 (Microcal). The data were fitted to a one-site equilibrium-binding model.
A general note: Isothermal titration calorimetry measures the heat released or taken up as one component is titrated into another.

Assay [2] deals with T1, human FUT8. In words: FUT8 enzyme kinetics, GDP-Glo luminescence assay. The class given is biochemical. How it is done: as §1
Enzyme kinetics for FUT8 were determined using GDP-Glo luminescence assays (Promega). Reactions contained 100 nM FUT8 in 25 mM Tris (pH 7.5), 150 mM NaCl, and 200 μM GDP-fucose in the presence of the ligands. The concentrations of G0, the G0-peptide, the M3N2-peptide, M3N2, and M5N2-Asn ranged from 5 μM to 1 mM. To determine the kinetic parameters for GDP-fucose, we used 100 nM FUT8 in 25 mM Tris (pH 7.5), 150 mM NaCl, and variable concentrations of GDP-fucose (from 5 to 500 μM) in the presence of 500 μM of G0. Reactions were incubated for 30 min at 37 °C and stopped using 5 μL of GDP-detection reagent at a 1:1 ratio in white and opaque 384-well plates. Then, the plates were incubated in the dark for 1 h at room temperature. Subsequently, the luminance values were obtained by using a Synergy HT plate reader (Biotek).
To estimate the amount of GDP produced in the glycosyltransferase reaction, we created a GDP standard curve. The values were corrected for enzyme hydrolysis in the absence of the substrate acceptor and fitted to a nonlinear Michaelis–Menten equation in GraphPad Prism 6 software from which the Km, kcat, and Vmax along with their standard deviations were obtained. All the experiments were performed in duplicate.

The target of assay [3] is T1, human FUT8. In words: STD NMR of ligands with FUT8. Type of assay: binding. As to conditions: 20 μM FUT8, absence or presence of GDP (1 mM), 283 K. How it is done: All experiments were performed at a temperature of 283 K using a Bruker AVANCE-III 800 MHz spectrometer with a 5 mm TXI triple resonance probe with z axis pulse field gradients (5 mm PATXI 1H-13C/15N/D Z-GRD). The ligands, M3N2, the M3N2-peptide, the G0-peptide, and the naked peptide, had their labile protons exchanged with deuterium by dissolving in D2O, freeze-drying for three times, and finally dissolving at 5 mM in D2O. M3N2-peptide, G0-peptide, and naked peptide ^1H-NMR and ^13C-NMR signals were assigned using ^1H-^13C HSQC (hsqcedetgp), ^1H-^13C HSQC-TOCSY (hsqcgpmlph), TOCSY (mlevph), COSY (cosygmpfqf), and HMBC (hmbcgplpndqf). 2D-NOESY experiments were carried out for M3N2 and the M3N2-peptide using the Bruker pulse program noesygpph with mixing times (d8) of 100, 150, 200, 250, 300, 400, 600, 800, 1000, and 1500 ms. The relaxation time was set to 1 s. Fourier transform was applied to both dimensions and the corresponding horizontal traces were extracted for H1B (4.47 ppm) and H5A (3.42 ppm) in the case of the M3N2-peptide. […] Average H1A-H5A and H1B-H5B distances were calculated from the 1 μs MD simulation and used for the calculation according to the equation in Figure S9c.
STD NMR spectra were measured for the corresponding N-glycans in the presence of 20 μM FUT8 both with and without GDP (1 mM) using the Bruker pulse program stddiff.3. […]

Assay [4] addresses T1, human FUT8. Briefly: FUT8 substrate specificity by MALDI-TOF MS. Type of assay: biochemical. As to conditions: 18 μM FUT8, 18 h at RT (long incubation). The protocol:
Solutions of the different N-glycan structures (1 nmol) were incubated with a FUT8 enzyme (18 μM) and GDP-fucose (2 nmol) in 25 mM Tris and 150 mM NaCl (pH 7.5) (total volume of 10 μL) for 18 h at RT. The reaction mixture was analyzed by MALDI-TOF mass spectrometry employing a solution of 2,5-dihydroxybenzoic acid (DHB, 5 mg/mL in CH3CN:0.1% TFA, 30:70, containing 0.05% NaCl) as a matrix. The MALDI-TOF spectra were recorded on an Ultraflextreme III time-of-flight mass spectrometer equipped with a pulsed Nd:YAG laser (355 nm) and controlled by FlexControl 3.3 software (Bruker Daltonics, Bremen, Germany). The m/z range was selected according to the mass of the sample and the acquired spectra were processed with FlexAnalysis 3.3 software (Bruker Daltonics, Bremen, Germany).

In another assay the test system is CHO^KO:mgat1. Briefly: Site-specific N-glycan analysis of recombinant glycoproteins produced in CHO^KO:mgat1. The class given is cell-based. The following applies: for Man5-GlcNAc2-Fuc/total / Man5-GlcNAc2/total: total = sum of top five glycopeptide intensities by LC–MS.
Assay [5] has as its target human FUT8 (α-1,6-fucosyltransferase) (human) (UniProt Q9BYC5). In words: ITC; Auto-iTC200, 25 °C; FUT8 70 μM, ligand 400 μM to 1 mM; 25 mM Tris pH 7.5, 150 mM NaCl, 1 mM GDP (excess GDP); one-site model; duplicate.
Where [6] appears, read: excess GDP (1 mM), 25 °C, pH 7.5.
[7] abbreviates: GDP titrated into FUT8, 25 °C, pH 7.5.
[8] abbreviates: 100 nM FUT8, 37 °C, 30 min, acceptors with 200 μM GDP-fucose, GDP-Fuc with saturating G0 (500 μM).

Values joined by “and” are separate entries in the source; they are usually repeats but may differ in a detail not shown here. Equal values may be shown once.

By Kd is commonly meant the free concentration of one partner at which half of the binding sites on the other are occupied at equilibrium, for simple one-to-one binding. High values mean weaker binding, low ones tighter binding. Regarding `CC(=O)N[C@@H]1[C@@H](O)[C@H](O[C@@H]2O[C@H](CO)[C@@H](O[C@@H]3O[C@H](CO[C@H]4O[C@H](CO)[C@@H](O)[C@H](O)[C@@H]4O[C@@H]4O[C@H](CO)[C@@H](O)[C@H](O)[C@H]4NC(C)=O)[C@@H](O)[C@H](O[C@H]4O[C@H](CO)[C@@H](O)[C@H](O)[C@@H]4O[C@@H]4O[C@H](CO)[C@@H](O)[C@H](O)[C@H]4NC(C)=O)[C@@H]3O)[C@H](O)[C@H]2NC(C)=O)[C@@H](CO)O[C@H]1NC(=O)C[C@H](NC(=O)[C@H](C)NC(=O)[C@@H](NC(=O)[C@@H](N)CCCCN)C(C)C)C(=O)N[C@@H](CCCCN)C(=O)N[C@H](C(=O)O)[C@@H](C)O` [G0-peptide], the dissociation constant (Kd) at human FUT8 [1] (setting [6]) is 10 ± 4 µM.
`Nc1nc2c(ncn2[C@@H]2O[C@H](COP(=O)(O)OP(=O)(O)O)[C@@H](O)[C@H]2O)c(=O)[nH]1` [GDP, reference compound]: on human FUT8 [1] (setting [7]), the Kd was 6.11 µM and 6.1 µM; the “n (stoichiometry of binding)” value worked out at 0.60; the ΔG result is listed as “–7.09 ± 1.65 kcal/mol”; the ΔH entry was “–5.02 ± 0.4 kcal/mol”. Besides, the “–TΔS” value at human FUT8 [1] (setting [7]) is given as “–2.07 ± 0.48 kcal/mol”.
A word on the Km: it is the concentration of substrate that gives half-maximal velocity. As to `C[C@@H]1O[C@H](OP(=O)(O)OP(=O)(O)OC[C@H]2O[C@@H](n3cnc4c(=O)[nH]c(N)nc43)[C@H](O)[C@@H]2O)[C@@H](O)[C@H](O)[C@@H]1O` [GDP-Fuc, GDP-β-L-fucose], on human FUT8 [2] (setting [8]), the Km is 14.6 ± 3.4 µM, the Vmax amounted to 244.3 ± 13.1 nmol·min^–1·mg^–1 and the kcat worked out at 14.17 ± 0.76 min^–1. Besides, the “Catalytic efficiency of the transfer reaction relative to G0” value at human FUT8 [2] (GDP-Fuc more efficient than G0) is around 10 fold.
Consider `CC(=O)N[C@H]1[C@H](O[C@H]2[C@H](O)[C@@H](NC(C)=O)C(O)O[C@@H]2CO)O[C@H](CO)[C@@H](O[C@@H]2O[C@H](CO[C@H]3O[C@H](CO)[C@@H](O)[C@H](O)[C@@H]3O)[C@@H](O)[C@H](O[C@H]3O[C@H](CO)[C@@H](O)[C@H](O)[C@@H]3O)[C@@H]2O)[C@@H]1O` (some centres unmarked) [M3N2, Man3GlcNAc2 N-glycan oligosaccharide], for which the “FUT8 activity against acceptor substrate” value at human FUT8 [2] (acceptor 5 μM to 1 mM) was “inactive”. Further, the “STD NMR interaction with FUT8” value on human FUT8 [3] is “no STD NMR signals were observed”. Further, the “Core fucosylation by FUT8, qualitative (MALDI-TOF MS)” value on human FUT8 [4] is given as “very poorly glycosylated”. Also, the “Binding to FUT8 by ITC” value at human FUT8 [1] (excess GDP (1 mM)) was “could not determine a Kd”.
Take `CC(=O)N[C@@H]1[C@@H](O)[C@H](O[C@@H]2O[C@H](CO)[C@@H](O[C@@H]3O[C@H](CO[C@H]4O[C@H](CO)[C@@H](O)[C@H](O)[C@@H]4O)[C@@H](O)[C@H](O[C@H]4O[C@H](CO)[C@@H](O)[C@H](O)[C@@H]4O)[C@@H]3O)[C@H](O)[C@H]2NC(C)=O)[C@@H](CO)O[C@H]1NC(=O)C[C@H](NC(=O)[C@H](C)NC(=O)[C@@H](NC(=O)[C@@H](N)CCCCN)C(C)C)C(=O)N[C@@H](CCCCN)C(=O)N[C@H](C(=O)O)[C@@H](C)O` [M3N2-peptide, Man3GlcNAc2 N-glycopeptide]: at human FUT8 [1] (setting [6]), the affinity, expressed as Kd, was 406 ± 159 µM.
For `CC(=O)N[C@@H]1[C@@H](O)[C@H](O[C@@H]2O[C@H](CO)[C@@H](O[C@@H]3O[C@H](CO[C@H]4O[C@H](CO[C@H]5O[C@H](CO)[C@@H](O)[C@H](O)[C@@H]5O)[C@@H](O)[C@H](O[C@H]5O[C@H](CO)[C@@H](O)[C@H](O)[C@@H]5O)[C@@H]4O)[C@@H](O)[C@H](O[C@H]4O[C@H](CO)[C@@H](O)[C@H](O)[C@@H]4O)[C@@H]3O)[C@H](O)[C@H]2NC(C)=O)[C@@H](CO)O[C@H]1NC(=O)C[C@H](N)C(=O)O` [M5N2-Asn, Man5GlcNAc2-Asn], on human FUT8 [2] (1 mM acceptor substrate), the “Initial velocity, fold worse than that of G0 and the G0-peptide” value was around 14 fold. Also, the “Binding to FUT8 by ITC” value at human FUT8 [1] (excess GDP (1 mM)) was “could not observe a binding titration profile”.
Turning to “EPO: recombinant erythropoietin expressed in CHO cells”, the figures for the Man5-GlcNAc2-Fuc/total in the assay on CHO^KO:mgat1 (EPO N-glycosite N51), with CHO^KO:mgat1 (EPO N-glycosite N65) and in the assay with CHO^KO:mgat1 (EPO N-glycosite N110) were 0.48, 0.90 and 0.67, respectively. Moreover, the figures for the Man5-GlcNAc2/total with CHO^KO:mgat1 (EPO N-glycosite N51), in the assay with CHO^KO:mgat1 (EPO N-glycosite N65) and with CHO^KO:mgat1 (EPO N-glycosite N110) were 0.52, 0.10 and 0.33, respectively. In addition, the “Core fucosylation of high-mannose N-glycan in KO mgat1” value in the assay on CHO^KO:mgat1 (N65 glycosite) was “almost exclusively core-fucosylated”. Besides, the “Core fucosylation of high-mannose N-glycans in KO mgat1” value in the assay on CHO^KO:mgat1 (all glycosites) is recorded as “acquired core Fuc to some degree”.
By stoichiometry N is commonly meant the number of molecules, sites or subunits per partner or assembly. Turning to “G0-peptide (KVANKT carrying the biantennary complex N-glycan G0 on Asn4)”, in assay [5], the dH was -3.2 kcal/mol and the stoichiometry N came out at 0.84.
For “M3N2-peptide (Man3GlcNAc2 N-glycopeptide, KVANKT)”, in that order: 7.7 kcal/mol and 1.6.
